Assays:
[1] = target: SMARCA4 (Homo sapiens (Human), UniProt P51532); experiment: SMARCA4 HiBiT degradation assay in HeLa cells; format: cell-based; conditions: 18 hours; for DC50: read-out: DC50 (SM4-HeLa) SMARCA4 degradation potency; for Dmax: HeLa, read-out: Dmax % (SM4-HeLa) maximum SMARCA4 degradation within the concentrations tested
Outline: (§1)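 HeLa monoclonal lines carrying a heterozygous HiBiT knock-in on SMARCA2 or SMARCA4 were seeded at 2500 cells/well in EMEM with 10% FBS. After 18 h compound exposure at 37 °C, Nano-Glo HiBiT lytic detection ran 30-60 min at RT before the luminescence read. Values are from curve fits.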

[2] = target: SMARCA2 (Homo sapiens (Human), UniProt P51531); experiment: SMARCA2 HiBiT degradation assay in HeLa cells; format: cell-based; conditions: 18 hours; for DC50: read-out: DC50 (SM2-HeLa) SMARCA2 degradation potency; for Dmax: read-out: Dmax % (SM2-HeLa) maximum SMARCA2 degradation within the concentrations tested
Outline: as §1

Chain of SMARCA4 (P51532 whole entry): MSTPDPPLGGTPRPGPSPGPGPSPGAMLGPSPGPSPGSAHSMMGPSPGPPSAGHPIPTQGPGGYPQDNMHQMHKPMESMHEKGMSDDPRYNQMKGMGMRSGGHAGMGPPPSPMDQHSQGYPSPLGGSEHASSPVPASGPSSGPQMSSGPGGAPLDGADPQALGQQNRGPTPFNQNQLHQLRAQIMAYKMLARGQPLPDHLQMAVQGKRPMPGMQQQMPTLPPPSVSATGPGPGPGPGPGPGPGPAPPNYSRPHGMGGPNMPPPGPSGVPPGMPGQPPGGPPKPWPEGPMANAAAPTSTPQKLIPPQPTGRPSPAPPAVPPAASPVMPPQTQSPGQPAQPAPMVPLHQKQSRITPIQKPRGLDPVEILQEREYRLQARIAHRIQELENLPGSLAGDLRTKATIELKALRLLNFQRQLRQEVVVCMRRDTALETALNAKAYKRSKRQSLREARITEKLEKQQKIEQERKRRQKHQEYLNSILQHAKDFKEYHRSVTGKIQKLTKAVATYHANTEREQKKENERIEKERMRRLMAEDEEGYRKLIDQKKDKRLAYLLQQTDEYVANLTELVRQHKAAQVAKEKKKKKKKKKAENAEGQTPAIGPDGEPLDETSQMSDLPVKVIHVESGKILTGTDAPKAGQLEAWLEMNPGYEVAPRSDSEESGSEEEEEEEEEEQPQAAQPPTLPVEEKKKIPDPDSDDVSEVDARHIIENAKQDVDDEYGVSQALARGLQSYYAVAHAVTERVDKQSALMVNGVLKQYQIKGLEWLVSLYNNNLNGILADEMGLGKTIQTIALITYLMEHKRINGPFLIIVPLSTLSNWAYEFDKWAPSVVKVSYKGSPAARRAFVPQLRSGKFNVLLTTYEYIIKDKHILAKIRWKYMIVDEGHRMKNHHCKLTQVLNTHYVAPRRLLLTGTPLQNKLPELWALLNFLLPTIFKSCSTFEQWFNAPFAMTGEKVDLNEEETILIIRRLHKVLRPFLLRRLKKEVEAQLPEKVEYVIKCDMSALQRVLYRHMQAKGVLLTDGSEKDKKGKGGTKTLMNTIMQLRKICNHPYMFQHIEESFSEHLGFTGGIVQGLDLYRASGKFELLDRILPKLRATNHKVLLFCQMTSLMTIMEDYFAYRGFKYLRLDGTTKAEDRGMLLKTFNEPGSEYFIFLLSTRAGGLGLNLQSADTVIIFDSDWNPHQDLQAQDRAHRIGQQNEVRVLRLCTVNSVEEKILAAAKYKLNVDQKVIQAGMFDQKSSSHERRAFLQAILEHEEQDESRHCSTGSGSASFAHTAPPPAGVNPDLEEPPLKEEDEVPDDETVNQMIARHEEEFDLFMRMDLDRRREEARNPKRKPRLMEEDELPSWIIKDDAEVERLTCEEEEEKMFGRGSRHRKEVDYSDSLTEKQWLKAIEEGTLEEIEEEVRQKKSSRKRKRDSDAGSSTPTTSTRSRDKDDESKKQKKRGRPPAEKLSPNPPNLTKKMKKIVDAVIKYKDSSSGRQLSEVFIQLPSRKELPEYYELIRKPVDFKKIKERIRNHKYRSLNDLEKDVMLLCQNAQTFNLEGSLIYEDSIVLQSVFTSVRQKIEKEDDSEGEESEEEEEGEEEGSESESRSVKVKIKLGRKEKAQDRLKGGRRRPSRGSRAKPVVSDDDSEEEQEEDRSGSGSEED
Chain of SMARCA2 (P51531 whole entry): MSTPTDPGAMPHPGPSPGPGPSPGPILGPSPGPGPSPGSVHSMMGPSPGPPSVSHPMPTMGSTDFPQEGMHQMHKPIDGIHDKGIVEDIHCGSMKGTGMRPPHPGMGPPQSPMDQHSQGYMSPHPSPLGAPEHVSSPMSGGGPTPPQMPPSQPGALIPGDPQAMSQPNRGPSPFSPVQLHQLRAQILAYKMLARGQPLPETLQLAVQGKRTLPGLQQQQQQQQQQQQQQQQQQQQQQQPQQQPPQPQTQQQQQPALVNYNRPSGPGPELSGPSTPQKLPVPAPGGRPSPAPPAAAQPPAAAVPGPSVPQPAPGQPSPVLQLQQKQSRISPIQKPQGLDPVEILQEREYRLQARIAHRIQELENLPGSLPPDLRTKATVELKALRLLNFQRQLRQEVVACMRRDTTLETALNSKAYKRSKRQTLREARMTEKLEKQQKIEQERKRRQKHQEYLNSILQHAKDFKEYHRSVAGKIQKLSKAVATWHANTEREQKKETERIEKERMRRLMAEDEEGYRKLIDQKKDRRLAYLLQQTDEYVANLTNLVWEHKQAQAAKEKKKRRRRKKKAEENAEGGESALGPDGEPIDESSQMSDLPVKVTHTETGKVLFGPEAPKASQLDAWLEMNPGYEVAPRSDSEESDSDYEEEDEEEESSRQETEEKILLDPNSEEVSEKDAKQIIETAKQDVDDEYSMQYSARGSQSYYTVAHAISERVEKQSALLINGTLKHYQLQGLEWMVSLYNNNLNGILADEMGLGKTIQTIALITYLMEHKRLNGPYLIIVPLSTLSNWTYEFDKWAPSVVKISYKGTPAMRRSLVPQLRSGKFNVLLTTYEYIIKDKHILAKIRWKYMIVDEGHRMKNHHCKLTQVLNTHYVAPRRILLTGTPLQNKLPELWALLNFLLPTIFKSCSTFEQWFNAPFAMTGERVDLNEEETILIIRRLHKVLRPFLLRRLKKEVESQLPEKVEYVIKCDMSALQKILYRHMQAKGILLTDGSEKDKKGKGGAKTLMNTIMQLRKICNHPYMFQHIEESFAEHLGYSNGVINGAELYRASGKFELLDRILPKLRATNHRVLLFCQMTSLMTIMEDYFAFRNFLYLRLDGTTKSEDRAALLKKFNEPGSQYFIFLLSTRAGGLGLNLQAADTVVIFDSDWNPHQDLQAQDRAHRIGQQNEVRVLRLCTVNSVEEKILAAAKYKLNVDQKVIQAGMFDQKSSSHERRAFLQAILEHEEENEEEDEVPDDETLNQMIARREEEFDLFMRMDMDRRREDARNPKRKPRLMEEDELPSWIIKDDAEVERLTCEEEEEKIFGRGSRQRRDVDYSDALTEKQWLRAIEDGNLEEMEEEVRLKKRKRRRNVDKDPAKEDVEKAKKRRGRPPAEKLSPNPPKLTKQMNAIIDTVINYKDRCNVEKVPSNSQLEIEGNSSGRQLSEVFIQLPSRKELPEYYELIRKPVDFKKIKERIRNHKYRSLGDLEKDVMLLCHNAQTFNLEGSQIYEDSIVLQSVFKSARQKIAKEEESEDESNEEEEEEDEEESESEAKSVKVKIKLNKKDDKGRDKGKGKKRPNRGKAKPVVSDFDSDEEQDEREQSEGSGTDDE

| SMILES | DC50 [1] [nM] | Dmax [1] [%] | DC50 [2] [nM] | Dmax [2] [%] |
| --- | --- | --- | --- | --- |
| Cc1ncsc1-c1ccc([C@H](C)NC(=O)[C@@H]2C[C@@H](O)CN2C(=O)[C@@H](c2cc(CCCN(C)CCN3CCN4c5cc(-c6ccccc6O)nnc5NC[C@H]4C3)no2)C(C)C)cc1 [Example 92, (2S,4R)-4-hydroxy-1-((R)-2-(3-(3-((2-((S)-2-(2-hydroxyphenyl)-5,6,6a,7,9,10-hexahydro-8H-pyrazino[1′,2′:4,5]pyrazino[2,3-c]pyridazin-8-yl)ethyl)(methyl)amino)propyl)isoxazol-5-yl)-3-methylbutanoyl)-N-((S)-1-(4-(4-methylthiazol-5-yl)phenyl)ethyl)pyrrolidine-2-carboxamide] | ≥ 10000 | ≤ 50 | < 100 | > 75 |
| Cc1ncsc1-c1ccc([C@H](C)NC(=O)[C@@H]2C[C@@H](O)CN2C(=O)[C@@H](c2cc(OCCN3CCC(CN4C[C@@H]5CNc6nnc(-c7ccccc7O)cc6N5C[C@@H]4C)CC3)no2)C(C)C)cc1 [Example 101, (2S,4R)-4-hydroxy-1-((R)-2-(3-(2-(4-(((6aS,9S)-2-(2-hydroxyphenyl)-9-methyl-5,6,6a,7,9,10-hexahydro-8H-pyrazino[1′,2′:4,5]pyrazino[2,3-c]pyridazin-8-yl)methyl)piperidin-1-yl)ethoxy)isoxazol-5-yl)-3-methylbutanoyl)-N-((S)-1-(4-(4-methylthiazol-5-yl)phenyl)ethyl)pyrrolidine-2-carboxamide] | < 100 | > 75 | < 100 | > 75 |
| Cc1ncsc1-c1ccc([C@H](C)NC(=O)[C@@H]2C[C@@H](O)CN2C(=O)[C@@H](c2cc(OCCN3CCC(N4CCN5c6cc(-c7ccccc7O)nnc6NCC5(C)C4)CC3)no2)C(C)C)cc1 (stereo partly drawn) [Example 63, (2S,4R)-4-hydroxy-1-((2R)-2-(3-(2-(4-(2-(2-hydroxyphenyl)-6a-methyl-5,6,6a,7,9,10-hexahydro-8H-pyrazino[1′,2′:4,5]pyrazino[2,3-c]pyridazin-8-yl)piperidin-1-yl)ethoxy)isoxazol-5-yl)-3-methylbutanoyl)-N-((S)-1-(4-(4-methylthiazol-5-yl)phenyl)ethyl)pyrrolidine-2-carboxamide] | < 100 | > 75 | < 100 | > 75 |
| Cc1ncsc1-c1ccc([C@H](C)NC(=O)[C@@H]2C[C@@H](O)CN2C(=O)[C@@H](c2cc(OCCN3CCC(N4C[C@@H]5CNc6nnc(-c7ccccc7O)cc6N5C[C@@H]4C)C3)no2)C(C)C)cc1 (stereo partly drawn) [Example 102, (2S,4R)-4-hydroxy-1-((2R)-2-(3-(2-(3-((6aS,9S)-2-(2-hydroxyphenyl)-9-methyl-5,6,6a,7,9,10-hexahydro-8H-pyrazino[1′,2′:4,5]pyrazino[2,3-c]pyridazin-8-yl)pyrrolidin-1-yl)ethoxy)isoxazol-5-yl)-3-methylbutanoyl)-N-((S)-1-(4-(4-methylthiazol-5-yl)phenyl)ethyl)pyrrolidine-2-carboxamide] | < 100 | > 75 | < 100 | > 75 |
| Cc1ncsc1-c1ccc([C@H](C)NC(=O)[C@@H]2C[C@@H](O)CN2C(=O)[C@@H](c2cc(OCCN3CCC(C(=O)N4CCN5c6cc(-c7ccccc7O)nnc6NC[C@H]5C4)CC3)no2)C(C)C)cc1 [Example 98, (2S,4R)-4-hydroxy-1-((R)-2-(3-(2-(4-((S)-2-(2-hydroxyphenyl)-6,6a,7,8,9,10-hexahydro-5H-pyrazino[1′,2′:4,5]pyrazino[2,3-c]pyridazine-8-carbonyl)piperidin-1-yl)ethoxy)isoxazol-5-yl)-3-methylbutanoyl)-N-((S)-1-(4-(4-methylthiazol-5-yl)phenyl)ethyl)pyrrolidine-2-carboxamide] | < 100 | > 75 | < 100 | > 75 |
| Cc1ncsc1-c1ccc([C@H](C)NC(=O)[C@@H]2C[C@@H](O)CN2C(=O)[C@@H](c2cc(OC(C)CN3CCC(N4CCN5c6cc(-c7ccccc7O)nnc6NC[C@H]5C4)CC3)no2)C(C)C)cc1 (stereo partly drawn) [Example 57, (2S,4R)-4-hydroxy-1-((2R)-2-(3-((1-(4-((S)-2-(2-hydroxyphenyl)-5,6,6a,7,9,10-hexahydro-8H-pyrazino[1′,2′:4,5]pyrazino[2,3-c]pyridazin-8-yl)piperidin-1-yl)propan-2-yl)oxy)isoxazol-5-yl)-3-methylbutanoyl)-N-((S)-1-(4-(4-methylthiazol-5-yl)phenyl)ethyl)pyrrolidine-2-carboxamide] | 100 to 1000 | 50 to 75 | < 100 | > 75 |
| Cc1ncsc1-c1ccc([C@H](C)NC(=O)[C@@H]2C[C@@H](O)CN2C(=O)[C@@H](c2cc(OCCN3CCC(N4CCN5c6cc(-c7ccccc7O)nnc6NC[C@H]5C4)C(C)C3)no2)C(C)C)cc1 (single isomer, unassigned) [Example 55] | < 100 | > 75 | < 100 | > 75 |
| Cc1ncsc1-c1ccc([C@H](C)NC(=O)[C@@H]2C[C@@H](O)CN2C(=O)[C@@H](c2cc(OCCN3CCCC(N4CCN5c6cc(-c7ccccc7O)nnc6NC[C@H]5C4)C3)no2)C(C)C)cc1 (single isomer, unassigned) [Example 41] | < 100 | > 75 | < 100 | > 75 |
| Cc1ncsc1-c1ccc([C@H](C)NC(=O)[C@@H]2C[C@@H](O)CN2C(=O)[C@@H](c2cc(OCCN3CCN4c5cc(-c6ccccc6O)nnc5NC(C)C4C3)no2)C(C)C)cc1 (stereo partly drawn) [Example 95, (2S,4R)-4-hydroxy-1-((2R)-2-(3-(2-(2-(2-hydroxyphenyl)-6-methyl-5,6,6a,7,9,10-hexahydro-8H-pyrazino[1′,2′:4,5]pyrazino[2,3-c]pyridazin-8-yl)ethoxy)isoxazol-5-yl)-3-methylbutanoyl)-N-((S)-1-(4-(4-methylthiazol-5-yl)phenyl)ethyl)pyrrolidine-2-carboxamide] | < 100 | > 75 | < 100 | > 75 |
| Cc1ncsc1-c1ccc([C@H](C)NC(=O)[C@@H]2C[C@@H](O)CN2C(=O)[C@@H](c2cc(OCCN3CCC(N4CCN5c6cc(-c7ccccc7O)nnc6NC[C@H]5C4)CC3)no2)C(C)C)cc1 [Example 76, (2S,4R)-4-hydroxy-1-((R)-2-(3-(2-(4-((S)-2-(2-hydroxyphenyl)-5,6,6a,7,9,10-hexahydro-8H-pyrazino[1′,2′:4,5]pyrazino[2,3-c]pyridazin-8-yl)piperidin-1-yl)ethoxy)isoxazol-5-yl)-3-methylbutanoyl)-N-((S)-1-(4-(4-methylthiazol-5-yl)phenyl)ethyl)pyrrolidine-2-carboxamide] | < 100 | > 75 | < 100 | > 75 |

The remaining lines, values ahead:

| DC50 [1] [nM] | Dmax [1] [%] | DC50 [2] [nM] | Dmax [2] [%] | SMILES |
| --- | --- | --- | --- | --- |
| ≥ 10000 | ≤ 50 | < 100 | > 75 | Cc1ncsc1-c1ccc([C@H](C)NC(=O)[C@@H]2C[C@@H](O)CN2C(=O)C(c2cc(CCN(C)CCN3CCN4c5cc(-c6ccccc6O)nnc5NC[C@H]4C3)no2)C(C)C)cc1 (stereo partly drawn) [Example 34, (2S,4R)-4-hydroxy-1-(2-(3-(2-((2-((S)-2-(2-hydroxyphenyl)-5,6,6a,7,9,10-hexahydro-8H-pyrazino[1′,2′:4,5]pyrazino[2,3-c]pyridazin-8-yl)ethyl)(methyl)amino)ethyl)isoxazol-5-yl)-3-methylbutanoyl)N-((S)-1-(4-(4-methylthiazol-5-yl)phenyl)ethyl)pyrrolidine-2-carboxamide] |
| < 100 | > 75 | < 100 | > 75 | Cc1ncsc1-c1ccc([C@H](C)NC(=O)[C@@H]2C[C@@H](O)CN2C(=O)[C@@H](c2cc(OCCN3CC=C(CN4CCN5c6cc(-c7ccccc7O)nnc6NC[C@H]5C4)CC3)no2)C(C)C)cc1 [Example 90, (2S,4R)-4-hydroxy-1-((R)-2-(3-(2-(4-(((S)-2-(2-hydroxyphenyl)-5,6,6a,7,9,10-hexahydro-8H-pyrazino[1′,2′:4,5]pyrazino[2,3-c]pyridazin-8-yl)methyl)-3,6-dihydropyridin-1(2H)-yl)ethoxy)isoxazol-5-yl)-3-methylbutanoyl)-N-((S)-1-(4-(4-methylthiazol-5-yl)phenyl)ethyl)pyrrolidine-2-carboxamide] |
| 100 to 1000 | 50 to 75 | < 100 | > 75 | Cc1ncsc1-c1ccc([C@H](C)NC(=O)[C@@H]2C[C@@H](O)CN2C(=O)[C@@H](c2cc(OCCN3CCC(N4CCC(N5CCN6c7cc(-c8ccccc8O)nnc7NC[C@H]6C5)CC4)C3)no2)C(C)C)cc1 (stereo partly drawn) [Example 25, (2S,4R)-4-hydroxy-1-((2R)-2-(3-(2-(3-(4-((S)-2-(2-hydroxyphenyl)-5,6,6a,7,9,10-hexahydro-8H-pyrazino[1′,2′:4,5]pyrazino[2,3-c]pyridazin-8-yl)piperidin-1-yl)pyrrolidin-1-yl)ethoxy)isoxazol-5-yl)-3-methylbutanoyl)-N-((S)-1-(4-(4-methylthiazol-5-yl)phenyl)ethyl)pyrrolidine-2-carboxamide] |
| < 100 | > 75 | < 100 | > 75 | Cc1ncsc1-c1ccc([C@H](C)NC(=O)[C@@H]2C[C@@H](O)CN2C(=O)[C@@H](c2cc(OCCN3CCC(N4CCC(N5CCN6c7cc(-c8ccccc8O)nnc7NC[C@H]6C5)C4)CC3)no2)C(C)C)cc1 (single isomer, unassigned) [Example 69] |
